Measurements taken from ChEMBL document CHEMBL6096703 (J Med Chem, 2025).

Assays:
MDA-MB-436 [1] = assay: Antiproliferative activity against human MDA-MB-436 cells assessed as inhibition of cell proliferation at 100 nM incubated for 7 days by CCK-8 assay relative to control; format: functional; conditions: MDA-MB-436, 168 h, time 7 day
[2] = biological target: T1, Poly [ADP-ribose] polymerase 1 (Homo sapiens, UniProt P09874); assay: Inhibition of PARP1 (unknown origin) at 1 nM preincubated with compound for 10 mins followed by DNA and NAD+ addition and measured after 60 mins by chemiluminescence based envision reader analysis relative to control; conditions: time 70.0 min
T1 sequence (P09874 whole entry): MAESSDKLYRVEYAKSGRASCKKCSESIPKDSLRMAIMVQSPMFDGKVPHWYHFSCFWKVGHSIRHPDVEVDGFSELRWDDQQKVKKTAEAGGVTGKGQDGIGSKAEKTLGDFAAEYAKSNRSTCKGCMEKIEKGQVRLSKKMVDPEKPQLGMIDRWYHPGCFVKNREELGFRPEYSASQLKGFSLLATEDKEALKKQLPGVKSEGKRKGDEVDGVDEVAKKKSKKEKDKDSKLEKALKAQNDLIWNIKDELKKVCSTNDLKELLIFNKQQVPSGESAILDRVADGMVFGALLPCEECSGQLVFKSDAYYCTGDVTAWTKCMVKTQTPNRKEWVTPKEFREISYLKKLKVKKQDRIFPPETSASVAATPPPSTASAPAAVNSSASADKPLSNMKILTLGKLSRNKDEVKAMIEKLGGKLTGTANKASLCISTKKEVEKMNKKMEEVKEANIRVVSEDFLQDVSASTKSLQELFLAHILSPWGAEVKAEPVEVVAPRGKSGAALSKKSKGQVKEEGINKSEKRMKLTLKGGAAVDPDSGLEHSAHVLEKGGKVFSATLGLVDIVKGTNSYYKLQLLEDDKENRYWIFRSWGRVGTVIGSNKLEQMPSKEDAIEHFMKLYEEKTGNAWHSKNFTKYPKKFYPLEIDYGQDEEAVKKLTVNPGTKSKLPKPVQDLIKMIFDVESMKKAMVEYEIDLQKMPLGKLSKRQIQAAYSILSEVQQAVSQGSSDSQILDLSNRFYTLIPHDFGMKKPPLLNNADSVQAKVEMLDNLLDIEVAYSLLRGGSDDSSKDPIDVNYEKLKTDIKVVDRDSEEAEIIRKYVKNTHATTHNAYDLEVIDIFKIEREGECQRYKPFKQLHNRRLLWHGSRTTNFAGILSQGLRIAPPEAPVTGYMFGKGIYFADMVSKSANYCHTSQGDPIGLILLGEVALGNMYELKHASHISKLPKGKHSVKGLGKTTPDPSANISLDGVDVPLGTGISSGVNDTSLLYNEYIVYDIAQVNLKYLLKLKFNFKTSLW

[3] = biological target: T2, Poly [ADP-ribose] polymerase 2 (Homo sapiens, UniProt Q9UGN5); assay: Inhibition of PARP2 (unknown origin) at 1 uM preincubated with compound for 10 mins followed by DNA and NAD+ addition and measured after 60 mins by chemiluminescence based envision reader analysis relative to control; conditions: time 70.0 min
T2 sequence (Q9UGN5 whole entry): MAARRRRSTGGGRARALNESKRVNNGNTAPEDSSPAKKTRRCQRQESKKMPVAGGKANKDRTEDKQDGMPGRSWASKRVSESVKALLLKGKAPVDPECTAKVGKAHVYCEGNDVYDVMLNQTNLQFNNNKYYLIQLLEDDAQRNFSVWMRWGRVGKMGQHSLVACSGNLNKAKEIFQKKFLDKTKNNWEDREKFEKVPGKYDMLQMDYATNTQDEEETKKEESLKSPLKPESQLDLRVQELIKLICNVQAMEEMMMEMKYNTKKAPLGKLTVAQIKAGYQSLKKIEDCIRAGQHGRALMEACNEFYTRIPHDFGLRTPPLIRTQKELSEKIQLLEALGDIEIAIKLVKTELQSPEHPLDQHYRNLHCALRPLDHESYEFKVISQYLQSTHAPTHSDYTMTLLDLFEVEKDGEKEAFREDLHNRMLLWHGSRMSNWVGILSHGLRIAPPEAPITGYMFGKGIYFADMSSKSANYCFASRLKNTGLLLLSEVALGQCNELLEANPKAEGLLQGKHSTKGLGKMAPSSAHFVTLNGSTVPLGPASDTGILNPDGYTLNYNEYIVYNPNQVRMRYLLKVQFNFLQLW

MDA-MB-436 [4] = assay: Antiproliferative activity against human MDA-MB-436 cells assessed as reduction in cell viability incubated for 7 days by CCK-8 assay; format: functional, cell-based; conditions: MDA-MB-436, 168 h
[5] = biological target: T2, Poly [ADP-ribose] polymerase 2; assay: Inhibition of PARP2 (unknown origin) preincubated with compound for 10 mins followed by DNA and NAD+ addition and measured after 60 mins by chemiluminescence based envision reader analysis
[6] = biological target: T1, Poly [ADP-ribose] polymerase 1; assay: Inhibition of PARP1 (unknown origin) preincubated with compound for 10 mins followed by DNA and NAD+ addition and measured after 60 mins by chemiluminescence based envision reader analysis
[7] = AUC(0 to t) in male Balb/c mouse at 1 mg/kg, po measured upto 96 hrs by LC-MS/MS analysis; format: ADME, organism-based; conditions: male, Balb/c, in vivo
[8] = Clearance in male Balb/c mouse at 1 mg/kg, po measured upto 96 hrs by LC-MS/MS analysis; format: ADME, organism-based; conditions: male, Balb/c, in vivo
[9] = Cmax in male Balb/c mouse at 1 mg/kg, po measured upto 96 hrs by LC-MS/MS analysis; format: ADME, organism-based; conditions: in vivo
[10] = Half life in male Balb/c mouse at 1 mg/kg, po measured upto 96 hrs by LC-MS/MS analysis; format: ADME, organism-based; conditions: male, Balb/c, in vivo

Compound	inhibition at 0.1 µM (MDA-MB-436 [1])	inhibition [2]	IC50 (MDA-MB-436 [4])	further results
CCc1cc2ncc(CN3CC=C(c4ccncc4C#N)CC3)cc2[nH]c1=O	9.8%	13.7%		
CCc1cc2ncc(CN3CC=C(c4ccccc4C#N)CC3)cc2[nH]c1=O	44.8%	51.6%		
CCc1cc2ncc(CN3CC=C(c4ccc(C(F)(F)F)nc4)CC3)cc2[nH]c1=O	-4.1%	56.9%		inhibition [3]: 82.3%
CCc1cc2ncc(CN3CC=C(c4ncc(C(=O)NC)nc4C)CC3)cc2[nH]c1=O	41.1%	77.2%		inhibition [3]: 85.4%
CCc1cc2ncc(CN3CC=C(c4ccc(C(=O)NC)nc4N)CC3)cc2[nH]c1=O	19.5%	27.2%		
CNC(=O)c1ccc(N2CCN(Cc3cnc4cc(C5CC5)c(=O)[nH]c4c3)CC2)c(F)n1			4.1 nM	
CCc1cc2ncc(CN3CC=C(c4ccc(N)nc4)CC3)cc2[nH]c1=O	31.1%	10%		
CCc1cc2ncc(CN3CCN(c4ccc(C(=O)NC)nc4F)CC3)c(F)c2[nH]c1=O			43.1 nM	
CCc1cc2ncc(CN3CC=C(c4cc(F)c(C#N)c(F)c4)CC3)cc2[nH]c1=O	51.9%	31.3%	16.3 nM	
CCc1cc2ncc(CN3CC=C(c4ccc(C#N)s4)CC3)cc2[nH]c1=O	45%	46.2%		
CCc1cc2ncc(CN3CC=C(c4cnc(C(=O)NC)nc4)CC3)cc2[nH]c1=O	52.6%	47.1%	29.1 nM	
CCc1cc2ncc(CN3CC=C(c4ccc(C#N)cc4F)CC3)cc2[nH]c1=O		96.9%	5.3 nM	IC50 [5]: 62 nM; inhibition [3]: 92.3%; IC50 [6]: 0.17 nM
CCc1cc2ncc(CN3CCN(c4ccc([N+](=O)[O-])cc4F)CC3)cc2[nH]c1=O			1.8 nM	
CCc1cc2ncc(CN3CC=C(c4cnc(F)c(F)c4)CC3)cc2[nH]c1=O	37.7%	72.3%		inhibition [3]: 77.3%
CCc1cc2ncc(CN3CC=C(c4cnc5ccnn5c4)CC3)cc2[nH]c1=O	13.6%	46.3%		
CCc1cc2ncc(CN3CC=C(c4ccc(OC)nc4C)CC3)cc2[nH]c1=O	24%	40.9%		
CCc1cc2ncc(CN3CC=C(c4ncccc4C#N)CC3)cc2[nH]c1=O	5.9%	-9.3%		
CCc1cc2ncc(CN3CC=C(c4cc(F)c(C#N)cn4)CC3)cc2[nH]c1=O		88.6%	2.8 nM	IC50 [5]: 130 nM; inhibition [3]: 87.4%; AUC(0-t) at 96 h [7]: 16400 ng·h/mL; CL/F [8]: 1 mL/min/kg; Cmax [9]: 3020 ng/mL; IC50 [6]: 0.28 nM; half-life [10]: 5.26 h
CCc1cc2ncc(CN3CC=C(c4ncccc4C(=O)NC)CC3)cc2[nH]c1=O	26.7%	15%		
CCc1cc2ncc(CN3CC=C(c4ccc(C(=O)NC)c(F)c4F)CC3)cc2[nH]c1=O	16.1%	46.1%		

Compound	inhibition at 0.1 µM (MDA-MB-436 [1])	inhibition [2]	IC50 (MDA-MB-436 [4])	further results
CCc1cc2ncc(CN3CC=C(c4cccnc4N)CC3)cc2[nH]c1=O	14.4%	56.5%		
CCc1cc2ncc(CN3CC=C(c4ccc(C)c(F)c4)CC3)cc2[nH]c1=O	28.2%	54.4%		
CCc1cc2ncc(CN3CC=C(c4ccc(C#N)c(F)c4F)CC3)cc2[nH]c1=O	45.1%	54.7%		
CCc1cc2ncc(CN3CC=C(c4ncc(C#N)cc4C)CC3)cc2[nH]c1=O	-10.9%	15.9%		
CCc1cc2ncc(CN3CC=C(c4cc(F)c(C)c(F)c4)CC3)cc2[nH]c1=O	22.2%	27.5%		
CCc1cc2ncc(CN3CCN(c4ccc(C(=O)NC)nc4F)CC3)cc2[nH]c1=O		95.2%	2.8 nM	IC50 [5]: 88 nM; inhibition [3]: 93.8%; IC50 [6]: 0.65 nM
CCc1cc2ncc(CN3CC=C(c4cc(C)c(F)c(C)c4)CC3)cc2[nH]c1=O	23.6%	-3.8%		
CCc1cc2ncc(CN3CC=C(c4cnccc4C(=O)NC)CC3)cc2[nH]c1=O	18.5%	7.4%		
CNC(=O)c1ccc(N2CCN(Cc3cnc4cc(C)c(=O)[nH]c4c3)CC2)c(F)n1		75%	114 nM	IC50 [5]: 19 nM; inhibition [3]: 98.3%; IC50 [6]: 0.32 nM
CCc1cc2ncc(CN3CCN(c4ccc(C#N)cc4F)CC3)cc2[nH]c1=O			4.1 nM	
CCc1cc2ncc(CN3CC=C(c4ccc([N+](=O)[O-])cc4F)CC3)cc2[nH]c1=O		72.1%	25.7 nM	IC50 [5]: 37 nM; inhibition [3]: 98.1%; IC50 [6]: 0.47 nM
CCc1nc2ccc(CN3CCN(c4ccc(C(=O)NC)nc4F)CC3)c(F)c2[nH]c1=O			87.1 nM	
CCc1cc2ncc(CN3CC=C(c4ccc(C(=O)NC)nc4OC)CC3)cc2[nH]c1=O	31.3%	38.8%		
CCc1cc2ncc(CN3CCN(c4cc(F)c(C#N)cn4)CC3)cc2[nH]c1=O			1.9 nM	AUC(0-t) at 96 h [7]: 16000 ng·h/mL; CL/F [8]: 1 mL/min/kg; Cmax [9]: 2250 ng/mL; half-life [10]: 6.3 h
CCc1cc2ncc(CN3CC=C(c4ccc(C)cc4F)CC3)cc2[nH]c1=O	5%	61.7%		inhibition [3]: 75.4%
CCc1cc2ncc(CN3CC=C(c4ccc(F)c(C)c4)CC3)cc2[nH]c1=O	30.2%	46.6%		
CCc1cc2ncc(CN3CC=C(c4c(F)cc(C#N)cc4F)CC3)cc2[nH]c1=O	16.3%	10.5%		
CCc1cc2ncc(CN3CC=C(c4cnc(C#N)cn4)CC3)cc2[nH]c1=O	47.5%	45.8%		
CCc1cc2ncc(CN3CC=C(c4ccc(C#N)cc4)CC3)cc2[nH]c1=O	37.9%	75.6%		inhibition [3]: 91.7%
CCc1cc2ncc(CN3CC=C(c4ccc(F)cn4)CC3)cc2[nH]c1=O		91.4%	6.5 nM	IC50 [5]: 65 nM; inhibition [3]: 93.9%; IC50 [6]: 0.28 nM
